The source of these data is ChEMBL document CHEMBL1208766, “Synthesis of potent chemical inhibitors of dynamin GTPase” (Bioorg Med Chem Lett, 2010).

Molecules are shown by their SMILES. Calls of active or inactive are those of the source. No cut-off for these calls is given here.

One data set concerns the target T1, Dynamin-1 (Homo sapiens) (UniProt Q05193).
T1 sequence (whole entry): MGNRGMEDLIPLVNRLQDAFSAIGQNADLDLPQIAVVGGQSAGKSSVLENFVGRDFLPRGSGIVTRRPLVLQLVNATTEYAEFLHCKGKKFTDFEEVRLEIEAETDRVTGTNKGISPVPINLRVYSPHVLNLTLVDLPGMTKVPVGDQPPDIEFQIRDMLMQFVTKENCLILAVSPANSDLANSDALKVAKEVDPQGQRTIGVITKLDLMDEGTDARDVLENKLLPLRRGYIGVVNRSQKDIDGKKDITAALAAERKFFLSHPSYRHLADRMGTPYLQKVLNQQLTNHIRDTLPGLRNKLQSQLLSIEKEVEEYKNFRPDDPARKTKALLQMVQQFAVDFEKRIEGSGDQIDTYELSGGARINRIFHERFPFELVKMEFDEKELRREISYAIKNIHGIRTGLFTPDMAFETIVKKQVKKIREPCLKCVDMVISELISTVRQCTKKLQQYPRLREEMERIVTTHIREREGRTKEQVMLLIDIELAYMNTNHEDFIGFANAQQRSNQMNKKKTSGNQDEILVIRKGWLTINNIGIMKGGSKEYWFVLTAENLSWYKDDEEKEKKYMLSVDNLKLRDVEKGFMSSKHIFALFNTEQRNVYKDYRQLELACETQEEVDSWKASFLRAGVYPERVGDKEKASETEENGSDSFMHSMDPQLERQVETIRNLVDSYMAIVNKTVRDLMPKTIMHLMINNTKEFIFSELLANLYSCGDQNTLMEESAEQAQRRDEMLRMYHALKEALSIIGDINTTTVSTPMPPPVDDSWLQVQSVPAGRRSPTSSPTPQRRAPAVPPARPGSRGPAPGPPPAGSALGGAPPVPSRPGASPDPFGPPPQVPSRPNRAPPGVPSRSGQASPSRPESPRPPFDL
The data set can be described thus: (§1) Inhibition of GTPase activity of Dynamin 1. More on the design: concentration or dose not given beside the values. Particulars: concentration not given here.

Data set [1] concerns COS-7. The data set can be described thus: Inhibition of dynamin 1 mediated membrane fission in african green monkey Cos7 cells transfected with mRFP-LCa at 10 uM by total internal reflection fluorescence microscopy. Type of data set: cell-based. Particulars: Chlorocebus aethiops.
The target of the next data set is T2, Dynamin-1 (Homo sapiens, UniProt Q05193).
T2 sequence (Q05193 whole entry): T1 sequence (whole entry)
The data set is described as §1.

The next data set is filed under the species Homo sapiens. Put plainly: Inhibition of GTPase activity of human mitochondrial Drp1 expressed in Escherichia coli BL-21.
Data set [2] concerns COS-7. Put plainly: Inhibition of transferrin uptake in african green monkey COS7 cells by microscopic TexasRed imaging. It is filed as functional, cell-based. Particulars: Chlorocebus aethiops.
Data set [3] has as its system Cell division control protein 42 homolog. Put plainly: Inhibition of GTPase activity of Cdc42.
The subject of data set [4] is COS-7. The data set can be described thus: Inhibition of transferrin uptake in african green monkey COS7 cells after 30 mins by microscopic TexasRed imaging. Type of data set: functional, cell-based. As to conditions: Chlorocebus aethiops.
A short description of data set [5]: Cytotoxicity against african green monkey COS7 cells after 12 hrs. It is filed as cell-based. As to conditions: chlorocebus aethiops, cos-7, 12 h.

As a reminder, the inhibition is the share of the control response that was lost under treatment. On to `O=C(NCCc1ccc(O)cc1)c1ccc2ccccc2c1`, for which, at Dynamin-1 (Homo sapiens), the inhibition came to 0%.

The term IC50 denotes the concentration at which inhibition is half-maximal. Take `O=C(N/N=C/c1ccc(O)c(O)c1)c1cc2ccccc2cc1O` [DYNASORE]: the inhibition result with COS-7 [1] is “inactive”. The compound also displayed an inhibition against Dynamin-1 (Homo sapiens) of 69.8%. Besides, the half-maximal inhibitory concentration (IC50) against Dynamin-1 was determined as 10.8 µM; in the data set on COS-7 [2], 15 µM. Further, the inhibition entry in the data set listed under Homo sapiens is “Active”.

At Dynamin-1 (Homo sapiens), `O=C(OP(=O)(N1CCOC1=O)N1CCOC1=O)c1ccc2ccccc2c1` returned an inhibition of 0%. Besides, the inhibition entry in the data set with COS-7 [2] is “Active”.

For the compound `NCCc1ccc(OC(=O)c2ccc3ccccc3c2)cc1`, the inhibition on Dynamin-1 (Homo sapiens) was 0%.

As for `O=C(N/N=C/c1ccc(O)c(O)c1)c1ccc2ccccc2c1`, the inhibition entry in the data set on COS-7 [1] and in the data set filed under Homo sapiens was “Active” in each case. For the same compound, the inhibition entry (in data set [3]; in the data set with COS-7 [4]) was “inactive” in each case. The inhibition against Dynamin-1 (Homo sapiens) was determined as 73.2%. The figures for the IC50 against Dynamin-1 and with COS-7 [2] were 5.1 µM and 4 µM, respectively. In addition, in data set [5], the Activity result is given as “Non-toxic”.

For `COc1ccc(/C=N/NC(=O)c2cc3ccccc3cc2O)cc1O`, the inhibition result in the data set on COS-7 [1] and in the data set listed under Homo sapiens was “Active” each time. The inhibition result (in data set [3]; in the data set on COS-7 [4]) was “inactive” in each case. This compound showed an inhibition against Dynamin-1 (Homo sapiens) of 74.7%. Moreover, the figures for the IC50 at Dynamin-1 and in the data set on COS-7 [2] were 3.6 µM and 2.6 µM, respectively. In addition, in data set [5], the Activity entry is “Non-toxic”.

At Dynamin-1 (Homo sapiens), `O=C(N/N=C/c1ccc(Cl)c(Cl)c1)c1cc2ccccc2cc1O` yielded an inhibition of 0%.

With `O=C(N/N=C/c1cc(O)ccc1[N+](=O)[O-])c1cc2ccccc2cc1O`, the inhibition against Dynamin-1 (Homo sapiens) was 0%.

At Dynamin-1 (Homo sapiens), `O=C(N/N=C/c1ccc(Cl)c(Cl)c1)c1ccc2ccccc2c1` came in with an inhibition of 0%.

`Cc1ccc(/C=N/NC(=O)c2cc3ccccc3cc2O)cc1C` registered an inhibition against Dynamin-1 (Homo sapiens) of 0%.

Compound `Cc1ccc(/C=N/NC(=O)c2ccc3ccccc3c2)cc1C` returned an inhibition at Dynamin-1 (Homo sapiens) of 0%.
